# Measurements reported in US20200338156A1, “C[…] (CYCLO-HIS PRO) FOR PREVENTING, IMPROVING OR TREATING OF BONE LOSS RELATED DISEASE” (NovMetaPharma Co., Ltd., priority 2017, published 2020).
# “Also recorded” adds a separate entry of the source.
# Assays:
# MC3T3-E1 cells = assay: Osteogenic differentiation of MC3T3-E1 osteoblasts, alkaline phosphatase (ALP) activity; format: cell-based
# Procedure: MC3T3-E1 cells were incubated in MEMα, an ascorbic acid-free medium containing 10% FBS and 1% penicillin/streptomycin, in a 5% CO2 incubator at 37° C. To induce osteogenic differentiation, 10 mM β-glycerophosphate and […] of ascorbic acid was further added to the basal medium composition.
# 500 μl of 1×10^5 MC3T3-E1 cells were seeded into a 24-well plate and cultured for 24 hours until they reached 100% confluency. […] At this time, in the undifferentiated group, which is a negative control for differentiation, a basal medium was used instead of the differentiation medium. In the positive control treated with hPTH1-34, the medium was replaced with a differentiation medium 6 hours after the treatment. While the medium was replaced every 48 hours, each concentration of CHP and hPTH1-34 was treated for a total of 14 days.
# On day 14 of differentiation, the medium was removed, followed by washing once with PBS and fixing in 4% paraformaldehyde (PFA) at room temperature for 5 minutes. 500 μl of a 1-STEP™ NBCT/BCIP solution was added to allow a reaction to occur at room temperature for 1 hour. The reaction product was washed with distilled water, and then dried at room temperature, and the degree of coloring of the cells was observed using a microscope. Subsequently, DMSO was added to each well, followed by shaking, and then absorbance at 525 nm was measured.
# [1] = system: ovariectomized animal model; assay: Osteoporosis alleviation effect in ovariectomized animal model, micro CT of femur; format: in vivo, SD female mice
# Procedure: To determine the effect of alleviating osteoporosis in an ovariectomized animal model according to administration of CHP, a zinc salt, or a mixture thereof, 20-week-old SD female mice (SLC/Central Experimental Animal Co. Ltd., Seoul, Korea) were purchased and raised under certain conditions (temperature: 22±2° C., relative humidity: 55±10%, light/dark cycle: 12 hours). 7 mice/group were allowed to freely drink water and eat food in a cage, subjected to an adaptation period of 1 week before the experiment, and used in the experiment.
# After 6 weeks of the administration of CHP, a zinc salt, or a mixture thereof, the effect of alleviating osteoporosis in an ovariectomized animal model was analyzed using Micro CT. The bone mineral density of ovariectomized animals was measured by bone CT scanning of the 3 mm range at the front side of a 2 mm femoral growth plate using micro-CT (QuantumFX, Perkin Elmer, Massachusetts, USA). In addition, a bone volume fraction (BV/TV, %) was measured. The measurement results of the bone mineral density of the femur are illustrated in FIG. 1, and the bone volume fraction is illustrated in FIG. 2.
smiles,measurement,setting,value
"O=C1N[C@@H](Cc2cnc[nH]2)C(=O)N2CCC[C@@H]12 [CHP, cyclo-hispro]","osteogenic differentiation, degree of coloring (ALP staining, FIG. 3)","MC3T3-E1 cells; MC3T3-E1, 0.5, 1 or 2 mM CHP, day 14 of differentiation, compared to negative control","remarkably increased degree of coloring compared to the negative control; also recorded: as the concentration of CHP treated was increased, osteogenic differentiation and bone modeling were promoted"
same,"ALP activity (absorbance at 525 nm, FIG. 4)","MC3T3-E1 cells; MC3T3-E1, CHP 2 mM, day 14, compared to positive control hPTH1-34 10 nM",level similar to that of the positive control; also recorded: same or similar to that of a positive control
same,bone mineral density of a femur,"[1]; CHP alone administered to ovariectomized animal model, dose not stated (FIG. 1)",significantly increased
same,bone volume fraction of a femur,"[1]; CHP alone administered to ovariectomized animal model, dose not stated (FIG. 2)",significantly increased
same,bone volume fraction (BV/TV),"[1]; group administered 1 mg/L of CHP in drinking water, 6 weeks, micro-CT",restored to a level similar to that of the positive control (risedronate)
same,bone mineral density of the femur,"[1]; group administered 1 mg/L of CHP in drinking water, 6 weeks, micro-CT, compared to the ovariectomized group",significant increase
same,effect on bone mineral density and bone volume fraction versus zinc salt-administered group and combined (zinc salt + CHP) administration group,"[1]; ovariectomized animal model, CHP alone",significantly stronger
